8 compounds from patent publication US11339130B1 (Blade Therapeutics, Inc., priority 2016, dated 2022) can be followed below.

The target of test [1] is T1, Human Calpain 1/NS1 (Homo sapiens, UniProt P07384).
T1 sequence (P07384 1-714): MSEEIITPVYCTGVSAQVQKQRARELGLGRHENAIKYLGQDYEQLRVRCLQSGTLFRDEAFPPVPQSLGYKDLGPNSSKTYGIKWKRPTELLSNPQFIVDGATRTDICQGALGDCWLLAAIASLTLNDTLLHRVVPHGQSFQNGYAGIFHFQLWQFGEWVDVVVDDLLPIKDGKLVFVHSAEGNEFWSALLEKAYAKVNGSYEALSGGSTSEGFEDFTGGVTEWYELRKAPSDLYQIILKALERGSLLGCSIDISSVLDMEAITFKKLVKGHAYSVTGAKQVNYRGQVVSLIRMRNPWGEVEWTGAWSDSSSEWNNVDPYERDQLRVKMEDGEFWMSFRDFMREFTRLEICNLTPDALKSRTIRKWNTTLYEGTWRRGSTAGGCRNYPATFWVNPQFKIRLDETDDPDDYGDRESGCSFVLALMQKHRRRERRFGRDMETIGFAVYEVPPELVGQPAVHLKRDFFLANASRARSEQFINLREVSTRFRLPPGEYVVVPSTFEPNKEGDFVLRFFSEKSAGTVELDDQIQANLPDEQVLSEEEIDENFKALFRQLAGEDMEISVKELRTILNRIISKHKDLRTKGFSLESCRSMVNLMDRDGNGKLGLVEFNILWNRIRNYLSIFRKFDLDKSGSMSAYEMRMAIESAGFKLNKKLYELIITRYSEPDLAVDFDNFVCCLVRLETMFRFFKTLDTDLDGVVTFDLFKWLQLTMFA
T1 sequence (P04632 1-268 partner): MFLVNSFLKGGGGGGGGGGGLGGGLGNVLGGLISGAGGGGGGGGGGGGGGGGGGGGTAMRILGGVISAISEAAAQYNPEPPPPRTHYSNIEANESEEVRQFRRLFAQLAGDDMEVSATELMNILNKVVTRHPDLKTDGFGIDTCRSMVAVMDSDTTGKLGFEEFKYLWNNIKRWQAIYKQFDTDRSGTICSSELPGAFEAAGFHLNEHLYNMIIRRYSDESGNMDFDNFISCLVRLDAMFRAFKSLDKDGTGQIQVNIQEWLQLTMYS
The test can be described thus: Calpain inhibition continuous fluorescence (FRET) assay, Human Calpain 1/NS1. In kind it is biochemical. As to conditions: read-out: Human Calpain 1/NS1 IC50. In a few lines:
(§1)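 Fluorescence increase from the cleaved 5-FAM/QXL 520 substrate, read at 490/520 nm, gave activity. Calcium was supplied with the substrate to activate the enzyme in situ after a 25C enzyme-inhibitor preincubation, and IC50s were fit from initial slopes.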

The target in test [2] is T2, Human Calpain 9/NS1 (Homo sapiens, UniProt O14815).
T2 sequence (O14815 1-690): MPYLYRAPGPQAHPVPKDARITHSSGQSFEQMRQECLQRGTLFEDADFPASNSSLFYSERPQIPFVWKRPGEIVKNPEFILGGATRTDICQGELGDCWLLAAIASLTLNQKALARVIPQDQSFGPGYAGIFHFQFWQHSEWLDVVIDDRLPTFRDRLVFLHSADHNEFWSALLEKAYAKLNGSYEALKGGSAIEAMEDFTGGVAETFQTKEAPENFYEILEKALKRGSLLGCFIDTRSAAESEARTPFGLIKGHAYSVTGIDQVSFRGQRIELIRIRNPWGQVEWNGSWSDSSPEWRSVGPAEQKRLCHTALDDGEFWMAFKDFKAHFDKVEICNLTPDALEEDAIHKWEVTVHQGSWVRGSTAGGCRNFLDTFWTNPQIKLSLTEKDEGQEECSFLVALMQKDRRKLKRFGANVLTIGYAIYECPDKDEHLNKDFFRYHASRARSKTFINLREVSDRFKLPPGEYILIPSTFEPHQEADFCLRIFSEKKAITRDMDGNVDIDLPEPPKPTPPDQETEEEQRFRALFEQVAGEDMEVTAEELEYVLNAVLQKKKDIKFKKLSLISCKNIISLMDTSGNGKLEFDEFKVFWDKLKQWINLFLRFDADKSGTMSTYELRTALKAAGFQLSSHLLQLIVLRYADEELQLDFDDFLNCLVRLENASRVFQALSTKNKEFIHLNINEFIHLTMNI
T2 sequence (P04632 1-268 partner): T1 sequence (P04632 1-268 partner)
Nature of the test: Calpain inhibition continuous fluorescence (FRET) assay, Human Calpain 9/NS1. In kind it is biochemical. As to conditions: read-out: Human Calpain 9/NS1 IC50. A digest of the protocol: as §1

In test [3] the test system is Calpain activity in SH-SY5Y cells. The test can be described thus: SH-SY5Y + AMC fluorescence assay (Suc-LLVY-AMC substrate). It is filed as cell-based. Particulars: read-out: SH-SY5Y + AMC IC50.
Test [4] addresses T3, Human Calpain 2/NS1 (Homo sapiens, UniProt P17655).
T3 sequence (P17655 1-700): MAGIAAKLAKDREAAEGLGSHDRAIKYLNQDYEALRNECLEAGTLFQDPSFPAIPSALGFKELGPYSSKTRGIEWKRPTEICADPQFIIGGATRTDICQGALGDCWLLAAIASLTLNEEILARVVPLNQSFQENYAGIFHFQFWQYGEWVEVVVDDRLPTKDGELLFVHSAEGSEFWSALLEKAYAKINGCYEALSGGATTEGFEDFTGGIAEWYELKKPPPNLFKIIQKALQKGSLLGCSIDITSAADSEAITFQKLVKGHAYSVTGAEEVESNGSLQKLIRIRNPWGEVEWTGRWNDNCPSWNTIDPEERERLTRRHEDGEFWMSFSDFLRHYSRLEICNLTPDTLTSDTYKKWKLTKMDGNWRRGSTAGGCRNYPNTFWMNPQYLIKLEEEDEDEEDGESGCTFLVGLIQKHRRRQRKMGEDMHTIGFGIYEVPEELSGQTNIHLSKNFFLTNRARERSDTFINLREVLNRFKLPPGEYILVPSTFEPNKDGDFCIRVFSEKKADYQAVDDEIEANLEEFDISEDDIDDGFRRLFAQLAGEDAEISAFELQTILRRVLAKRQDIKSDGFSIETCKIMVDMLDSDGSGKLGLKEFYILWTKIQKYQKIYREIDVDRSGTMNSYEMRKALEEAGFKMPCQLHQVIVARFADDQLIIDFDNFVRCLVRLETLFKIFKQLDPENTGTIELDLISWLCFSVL
T3 sequence (P04632 1-268 partner): T1 sequence (P04632 1-268 partner)
Nature of the test: Calpain inhibition continuous fluorescence (FRET) assay, Human Calpain 2/NS1. In kind it is biochemical. Particulars: read-out: Human Calpain 2/NS1 IC50. A digest of the protocol: as §1

Test [5] has as its system Calpain activity in SH-SY5Y cells (SBDP-150). Nature of the test: SH-SY5Y Spectrin western blot assay (SBDP-150 breakdown product, A23187-induced). In kind it is cell-based. Particulars: Homo sapiens; SH-SY5Y cells, A23187-induced SBDP-150, western blot; read-out: SH-SY5Y Spectrin IC50. Background: Immunoblotting shows a protein as a band on a membrane.

For `COc1ccc(F)c(-c2nn(C)cc2C(=O)NC(Cc2ccccc2)C(=O)C(N)=O)c1` (stereo not shown) [Compound 507, N-(4-amino-3,4-dioxo-1-phenylbutan-2-yl)-3-(2-fluoro-5-methoxyphenyl)-1-methyl-1H-pyrazole-4-carboxamide], the IC50 in test [1] was under 3 µM; in test [2], under 3 µM; in test [3], under 10 µM; in test [4], under 3 µM; in test [5], 10 to 25 µM.
Turning to `Cn1cc(C(=O)NC(Cc2ccccc2)C(=O)C(N)=O)c(-c2cccc(C(F)F)c2)n1` (stereo not shown) [Compound 508, N-(4-amino-3,4-dioxo-1-phenylbutan-2-yl)-3-(3-(difluoromethyl)phenyl)-1-methyl-1H-pyrazole-4-carboxamide], the IC50 is under 3 µM in test [1]; under 3 µM in test [2]; under 10 µM in test [3]; under 3 µM in test [4]; under 10 µM in test [5].
As to `COc1cccc(-c2nn(C)cc2C(=O)NC(Cc2ccccc2)C(=O)C(N)=O)c1F` (stereo not shown) [Compound 509, N-(4-amino-3,4-dioxo-1-phenylbutan-2-yl)-3-(2-fluoro-3-methoxyphenyl)-1-methyl-1H-pyrazole-4-carboxamide], the IC50 was under 3 µM in test [1]; under 3 µM in test [2]; 10 to 25 µM in test [3]; under 3 µM in test [4]; 10 to 25 µM in test [5].
With `Cn1cc(C(=O)NC(Cc2ccccc2)C(=O)C(N)=O)c(-c2cccc3c2OC(F)(F)O3)n1` (stereo not shown) [Compound 510, N-(4-amino-3,4-dioxo-1-phenylbutan-2-yl)-3-(2,2-difluorobenzo[d][1,3]dioxol-4-yl)-1-methyl-1H-pyrazole-4-carboxamide], the IC50 is under 3 µM in test [1]; under 3 µM in test [2]; 10 to 25 µM in test [3]; under 3 µM in test [4]; 10 to 25 µM in test [5].
For the compound `Cn1cc(C(=O)NC(Cc2ccccc2)C(=O)C(N)=O)c(-c2cccc(F)c2C(F)(F)F)n1` (stereo not shown) [Compound 512, N-(4-amino-3,4-dioxo-1-phenylbutan-2-yl)-3-(3-fluoro-2-(trifluoromethyl)phenyl)-1-methyl-1H-pyrazole-4-carboxamide], the IC50 in test [1] was 3 to 10 µM; in test [2], 3 to 10 µM; in test [3], under 10 µM; in test [4], 3 to 10 µM; in test [5] it was over 25 µM.
Consider `Cn1cc(C(=O)NC(Cc2ccccc2)C(=O)C(N)=O)c(-c2ccccc2C(F)(F)F)n1` (stereo not shown) [Compound 513, N-(4-amino-3,4-dioxo-1-phenylbutan-2-yl)-1-methyl-3-(2-(trifluoromethyl)phenyl)-1H-pyrazole-4-carboxamide], for which the IC50 in test [1] was 3 to 10 µM; in test [2] it was 3 to 10 µM; in test [3], under 10 µM; in test [4], 3 to 10 µM; in test [5], over 25 µM.
Take `Cn1cc(C(=O)NC(Cc2ccccc2)C(=O)C(N)=O)c(-c2cccc3c2OCO3)n1` (stereo not shown) [Compound 514, N-(4-amino-3,4-dioxo-1-phenylbutan-2-yl)-3-(benzo[d][1,3]dioxol-4-yl)-1-methyl-1H-pyrazole-4-carboxamide]: the IC50 was under 3 µM in test [1]; under 3 µM in test [2]; under 10 µM in test [3]; under 3 µM in test [4]; over 25 µM in test [5].
Consider `COc1cncc(-c2nn(C)cc2C(=O)NC(Cc2ccccc2)C(=O)C(N)=O)c1` (stereo not shown) [Compound 515, N-(4-amino-3,4-dioxo-1-phenylbutan-2-yl)-3-(5-methoxypyridin-3-yl)-1-methyl-1H-pyrazole-4-carboxamide], for which the IC50 was under 3 µM in test [1]; under 3 µM in test [2]; over 25 µM in test [3]; under 3 µM in test [4]; over 25 µM in test [5].
